Test results: PMC2580763, “Product inhibition of secreted phospholipase A2 may explain lysophosphatidylcholines' unexpected therapeutic properties” (Journal of Inflammation (London, England), 2008)

Tests used:
[1] = test system: group IA sPLA2; assay: purified group IA sPLA2 enzyme activity in vitro with added lysoPC (10-pyrene substrate); type: biochemical, Naja mossambica; settings: for Km / Vmax: 15 nM group IA sPLA2; for type of inhibition of group IA sPLA2: lower range of substrate concentrations, added lysoPCs
Method: (§1) Blood was obtained from the trunk of 32 female Sprague Dawley rats (200–250 g) after decapitation. Blood samples were treated with citrate-phosphate-dextrose anticoagulant (1:10, Sigma), and plasma prepared by centrifugation after which samples were frozen at -80° until used. For 16 of these animals, plasma samples were pooled from 4–6 rats for ex vivo enzyme assays. The other 16 rats received lysoPC treatments (see below). The Institutional Animal Care and Use Committee of Drexel University College of Medicine approved all specific procedures of this study. Purified group IA secreted phospholipase A2 from the venom of the Mozambique spitting cobra (Naja mossambica) was obtained from Sigma (St. Louis, MO).
(§2) Enzyme assays were conducted as in previous studies using a Victor 3 fluorescent reader (Perkin Elmer, Waltham, MA). The substrate was 1-palmitoyl-2-pyrenedecanoyl phosphatidylcholine ("10-pyrene"), Caymen Chemical, Ann Arbor MI) a substrate for all calcium dependent PLA2s with the exception of cPLA2 and PAF-AH (LP-PLA2). Substrate solutions were prepared in reaction buffer consisting of 50 mM tris (pH = 7.4), 0.1 M NaCl, 2 mM CaCl2, 0.25% fatty acid-free albumin. The substrate forms phospholipids vesicles in this solution [37], and upon hydrolysis, releases fluorescent 10-pyrenyldecanoic acid (PDA). Plasma samples were 10% final and mixed with lysoPCs by gentle shaking for 100 sec, or they were derived from lysoPC-injected rats. All enzyme reactions were initiated with the addition of the substrate solution to the sPLA2 containing samples. Kinetic parameters including the properties of lysoPC inhibitors were determined by recording the initial maximum velocities (Vo) of enzyme reactions, obtained within 2 minutes of initiation. A detailed presentation of the calculations used in our kinetic analysis has been presented. Relative fluorescent units (RFU) were converted to product concentration using a standard curve made with pyrenyldecanoic acid (Invitrogen, Eugene, OR). Individual reactions were carried out in duplicate or triplicate and kinetic curves were produced using at least 6 substrate concentrations, with lysoPC or its vehicle (PBS with 8% ethanol). Representative Lineweaver-Burk and Michaelis-Menten plots as well as nonlinear regression analyses are presented in Results. Experiments were repeated at least 4 times with similar results. […] These calculations, and Km, Vmax and R^2 were made with statistical (INSTAT) and regression software (Prism), both from Graphpad (San Diego, CA).

[2] = test system: plasma sPLA2; assay: sPLA2 enzyme activity in rat plasma ex vivo with added lysoPC (10-pyrene substrate); type: biochemical; settings: for type of inhibition of plasma sPLA2 enzyme activity: kinetic studies, rat plasma ex vivo; for Ki / Km / Vmax: lysoPC 20 μM; for Ki: all reactions with substrates above 15 μM, read-out: Ki ± s.e.m.; for Km / Vmax: plasma 10% final
Method: as §1, §2

[3] = test system: plasma sPLA2; assay: plasma sPLA2 activity of rats after subcutaneous lysoPC injection; type: in vivo; settings: rat, subcutaneous 25 mg/kg, 2 hrs after injection; PDA generated in 1 hr
Method: Enzyme assays were conducted as in previous studies using a Victor 3 fluorescent reader (Perkin Elmer, Waltham, MA). The substrate was 1-palmitoyl-2-pyrenedecanoyl phosphatidylcholine ("10-pyrene"), Caymen Chemical, Ann Arbor MI) a substrate for all calcium dependent PLA2s with the exception of cPLA2 and PAF-AH (LP-PLA2). Substrate solutions were prepared in reaction buffer consisting of 50 mM tris (pH = 7.4), 0.1 M NaCl, 2 mM CaCl2, 0.25% fatty acid-free albumin. The substrate forms phospholipids vesicles in this solution [37], and upon hydrolysis, releases fluorescent 10-pyrenyldecanoic acid (PDA). Plasma samples were 10% final and mixed with lysoPCs by gentle shaking for 100 sec, or they were derived from lysoPC-injected rats. […] Kinetic parameters including the properties of lysoPC inhibitors were determined by recording the initial maximum velocities (Vo) of enzyme reactions, obtained within 2 minutes of initiation. […]
Rats were injected subcutaneously under the loose skin at the shoulders with synthetic stearoyl (n = 4) or palmitoyl (n = 4) lysoPCs (25 mg/kg) two hrs before sacrifice and compared to vehicle-injected rats (n = 8). The relative concentrations of active sPLA2 enzymes were measured in plasma samples of these animals by determining the total hydrolysis of substrate in 1 hr.

SMILES	inhibition of group IA sPLA2 ([1]; 40 μM lysoPC, 30 μM substrate)	Km ([1]; lysoPC 40 μM)	Vmax ([1]; lysoPC 40 μM)	type of inhibition of plasma sPLA2 enzyme activity [2]	Ki [2]	Km [2]	Vmax [2]	type of inhibition of group IA sPLA2 [1]	range of plasma sPLA2 activities compared with vehicle-injected control rats [3]	percent inhibition (percent reduction in Vo) ([1]; 40 μM lysoPC preincubated with 5% albumin (> 600 μM), n = 4)	percent inhibition (percent reduction in Vo) ([1]; 40 μM lysoPC, standard buffer (0.25% albumin), n = 8)	Km ([1]; lysoPC 10 μM)	Vmax ([1]; lysoPC 10 μM)	Km ([1]; lysoPC 20 μM)	Vmax ([1]; lysoPC 20 μM)
CCCCCCCCCC(=O)OC[C@@H](O)COP(=O)([O-])OCC[N+](C)(C)C [Decanoyl, Decanoyl lysoPC, reference compound]	failed to show inhibition	25 µM	342.4 μM/min/ml												
CCCCCCCCCCCCCCCC(=O)OC[C@@H](O)COP(=O)([O-])OCC[N+](C)(C)C [Palmitoyl, palmitoyl lysoPC]				uncompetitive inhibitors	25.9 ± 4 µM	16.1 µM	684.7 nM/min/ml	Uncompetitive inhibition	significantly lower and narrower						
CCCCCCCCCCCCCCCCCC(=O)OC[C@@H](O)COP(=O)([O-])OCC[N+](C)(C)C [Stearoyl, stearoyl lysoPC]		7.31 µM	92.15 μM/min/ml	uncompetitive inhibitors	34.2 ± 17.4 µM	11.3 µM	669.2 nM/min/ml	Uncompetitive inhibition	significantly lower and narrower	29.3 ± 1.6%	63 ± 6%	9.37 µM	221.9 μM/min/ml	5.92 µM	156.2 μM/min/ml
